Measured values reported in PubChem BioAssay AID330 (DTP/NCI, 2004).
Values joined by “and” are separate entries in the source; they are usually repeats but may differ in a detail not shown here. Identical values can stand only once. Inconclusive results and toxic doses are left out. Rule for the calls: active = survival T/C of 150% or more; inactive = T/C below 125% in these data.

System: P388 leukemia ip, CD2F1 mice, survival T/C
Experiment: NCI In Vivo Anticancer Drug Screen. Data for tumor model P388 Leukemia (intraperitoneal) in CD2F1 (CDF1) mice
Details: endpoint: median survival time, higher = longer survival
Outline: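 Mice carrying the transplanted tumor received test compound or vehicle. Survival was recorded in each group, and the value is the treated-group measurement divided by that of the vehicle-treated control group.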

[1] = dose: 100.0 mg/kg/injection, schedule: Q04DX002 (ip), vehicle: Klucel (hydroxypropylcellulose) (HPC)

Measured: T/C

O=c1cc(O)cc[nH]1
inactive: dose: 400.0 mg/kg/injection, schedule: Q01DX009 (ip), vehicle: saline 100 % of control and 96 % of control | dose: 600.0 mg/kg/injection, schedule: Q01DX009 (ip), vehicle: saline 101 % of control and 106 % of control

O=C1CCCC(=O)OCCOCCOCCOCCOCCO1
inactive: dose: 12.5 mg/kg/injection, schedule: Q01DX009 (ip), vehicle: saline 104 % of control and 108 % of control | dose: 25.0 mg/kg/injection, schedule: Q01DX009 (ip), vehicle: saline 104 % of control and 95 % of control | dose: 50.0 mg/kg/injection, schedule: Q01DX009 (ip), vehicle: saline 104 % of control and 108 % of control and 120 % of control | dose: 100.0 mg/kg/injection, schedule: Q01DX009 (ip), vehicle: saline 105 % of control | dose: 200.0 mg/kg/injection, schedule: Q01DX009 (ip), vehicle: saline 105 % of control

C=C(C(=O)N(C(C)C)C(C)C)C(C)CC(C)C(=O)N(C(C)C)C(C)C (stereo not given)
inactive: dose: 50.0 mg/kg/injection, schedule: Q04DX002 (ip), vehicle: Klucel (hydroxypropylcellulose) (HPC) 99 % of control | [1] 104 % of control | dose: 200.0 mg/kg/injection, schedule: Q04DX002 (ip), vehicle: Klucel (hydroxypropylcellulose) (HPC) 107 % of control | dose: 400.0 mg/kg/injection, schedule: Q04DX002 (ip), vehicle: Klucel (hydroxypropylcellulose) (HPC) 104 % of control

COC(=O)C(Cc1c[nH]c2ccccc12)NC(=O)c1ccccc1NC(=O)OCc1ccccc1 (stereo not given)
inactive: dose: 17.5 mg/kg/injection, schedule: Q01DX005 (ip), vehicle: Klucel (hydroxypropylcellulose) (HPC) 103 % of control | dose: 35.0 mg/kg/injection, schedule: Q01DX005 (ip), vehicle: Klucel (hydroxypropylcellulose) (HPC) 104 % of control | dose: 70.0 mg/kg/injection, schedule: Q01DX005 (ip), vehicle: Klucel (hydroxypropylcellulose) (HPC) 97 % of control

c1ccc2nc(N=Nc3cnc4ccccc4n3)cnc2c1
inactive: dose: 12.5 mg/kg/injection, schedule: Q01DX001 (ip), vehicle: saline with Tween-80 100 % of control and 93 % of control and 94 % of control | dose: 12.5 mg/kg/injection, schedule: Q01DX005 (ip), vehicle: saline with Tween-80 94 % of control | dose: 25.0 mg/kg/injection, schedule: Q01DX001 (ip), vehicle: saline with Tween-80 99 % of control and 94 % of control | dose: 25.0 mg/kg/injection, schedule: Q01DX005 (ip), vehicle: saline with Tween-80 94 % of control | dose: 50.0 mg/kg/injection, schedule: Q01DX001 (ip), vehicle: saline with Tween-80 100 % of control and 86 % of control and 97 % of control | dose: 50.0 mg/kg/injection, schedule: Q01DX005 (ip), vehicle: saline with Tween-80 97 % of control

CCCCCCCCCCCCCCC(O)c1ccccc1 (stereo not given)
inactive: dose: 7.5 mg/kg/injection, schedule: Q01DX009 (ip), vehicle: Klucel (hydroxypropylcellulose) (HPC) 113 % of control | dose: 15.0 mg/kg/injection, schedule: Q01DX009 (ip), vehicle: Klucel (hydroxypropylcellulose) (HPC) 115 % of control | dose: 30.0 mg/kg/injection, schedule: Q01DX009 (ip), vehicle: Klucel (hydroxypropylcellulose) (HPC) 110 % of control

CN1C2=NCCN2S(=O)(=O)c2ccccc21
inactive: dose: 100.0 mg/kg/injection, schedule: Q01DX001 (ip), vehicle: saline with Tween-80 101 % of control | dose: 200.0 mg/kg/injection, schedule: Q01DX001 (ip), vehicle: saline with Tween-80 110 % of control | dose: 400.0 mg/kg/injection, schedule: Q01DX001 (ip), vehicle: saline with Tween-80 92 % of control

CS(C)(O)NC(N)=O
inactive: dose: 50.0 mg/kg/injection, schedule: Q01DX005 (ip), vehicle: DMSO 121 % of control | dose: 100.0 mg/kg/injection, schedule: Q01DX005 (ip), vehicle: DMSO 119 % of control | dose: 100.0 mg/kg/injection, schedule: Q01DX005 (ip), vehicle: other 121 % of control | dose: 200.0 mg/kg/injection, schedule: Q01DX005 (ip), vehicle: DMSO 114 % of control | dose: 400.0 mg/kg/injection, schedule: Q01DX005 (ip), vehicle: DMSO 124 % of control

CCC(C)C(=O)OC1CCC=C2C=CC(C)C(CCC3CC(O)CC(=O)O3)C21 (stereo not given)
inactive: dose: 15.0 mg/kg/injection, schedule: Q01DX009 (ip), vehicle: saline 107 % of control | dose: 30.0 mg/kg/injection, schedule: Q01DX009 (ip), vehicle: saline 100 % of control | dose: 60.0 mg/kg/injection, schedule: Q01DX009 (ip), vehicle: saline 100 % of control

OCCN1CCN(CC/C=C2/c3ccccc3Sc3ccc(Cl)cc32)CC1
inactive: dose: 0.39 mg/kg/injection, schedule: Q01DX005 (ip), vehicle: saline 100 % of control | dose: 0.78 mg/kg/injection, schedule: Q01DX005 (ip), vehicle: saline 100 % of control | dose: 1.56 mg/kg/injection, schedule: Q01DX005 (ip), vehicle: saline 105 % of control | dose: 6.25 mg/kg/injection, schedule: Q01DX005 (ip), vehicle: saline 123 % of control | dose: 12.5 mg/kg/injection, schedule: Q04DX003 (ip), vehicle: saline 118 % of control | dose: 25.0 mg/kg/injection, schedule: Q04DX003 (ip), vehicle: saline 122 % of control | dose: 33.0 mg/kg/injection, schedule: Q04DX003 (ip), vehicle: saline 90 % of control | dose: 50.0 mg/kg/injection, schedule: Q04DX003 (ip), vehicle: saline 90 % of control | dose: 75.0 mg/kg/injection, schedule: Q04DX003 (ip), vehicle: saline 100 % of control

O=[N+]([O-])c1ccc(NN=NCCF)cc1
inactive: dose: 0.44 mg/kg/injection, schedule: Q01DX005 (ip), vehicle: other 102 % of control and 94 % of control | dose: 0.88 mg/kg/injection, schedule: Q01DX005 (ip), vehicle: other 102 % of control and 94 % of control | dose: 1.75 mg/kg/injection, schedule: Q01DX005 (ip), vehicle: other 105 % of control and 124 % of control and 94 % of control | dose: 3.5 mg/kg/injection, schedule: Q01DX005 (ip), vehicle: other 100 % of control and 106 % of control and 94 % of control | dose: 7.0 mg/kg/injection, schedule: Q01DX005 (ip), vehicle: other 109 % of control

O=C1c2c3c(c4c(c2C(=O)c2c5c(c6c(c21)CCC6)CCC5)CCC4)CCC3
inactive: dose: 10.0 mg/kg/injection, schedule: Q01DX009 (ip), vehicle: saline with Tween-80 95 % of control | dose: 20.0 mg/kg/injection, schedule: Q01DX009 (ip), vehicle: saline with Tween-80 96 % of control | dose: 40.0 mg/kg/injection, schedule: Q01DX009 (ip), vehicle: saline with Tween-80 99 % of control

Cc1ccc(N=C(CC(C)C)C2C(=O)c3ccccc3C2=O)cc1
inactive: dose: 50.0 mg/kg/injection, schedule: Q01DX005 (ip), vehicle: Klucel (hydroxypropylcellulose) (HPC) 100 % of control | dose: 100.0 mg/kg/injection, schedule: Q01DX005 (ip), vehicle: Klucel (hydroxypropylcellulose) (HPC) 94 % of control | dose: 200.0 mg/kg/injection, schedule: Q01DX005 (ip), vehicle: Klucel (hydroxypropylcellulose) (HPC) 99 % of control

COc1ccc(N2C(=S)N(c3cccc(Cl)c3Cl)C(=O)C(N=Nc3ccccc3Cl)C2O)cc1 (stereo not given)
inactive: dose: 100.0 mg/kg/injection, schedule: Q04DX003 (ip), vehicle: distilled water + alcohol 102 % of control | dose: 200.0 mg/kg/injection, schedule: Q04DX003 (ip), vehicle: distilled water + alcohol 99 % of control | dose: 400.0 mg/kg/injection, schedule: Q04DX003 (ip), vehicle: distilled water + alcohol 97 % of control

Cc1c(NC(=O)Nc2ccc(F)cc2)c(=O)n(-c2ccccc2)n1C
inactive: dose: 60.0 mg/kg/injection, schedule: Q01DX005 (ip), vehicle: saline with Tween-80 114 % of control | dose: 120.0 mg/kg/injection, schedule: Q01DX005 (ip), vehicle: saline with Tween-80 99 % of control | dose: 240.0 mg/kg/injection, schedule: Q01DX005 (ip), vehicle: saline with Tween-80 96 % of control

Cc1c(N=Nc2ccc([N+](=O)[O-])cc2)nc2scc(-c3ccccc3)n12
inactive: dose: 25.0 mg/kg/injection, schedule: Q04DX002 (ip), vehicle: Klucel (hydroxypropylcellulose) (HPC) 121 % of control | [1] 86 % of control

O=Nc1ccc2ccccc2c1O
inactive: dose: 12.5 mg/kg/injection, schedule: Q01DX001 (ip), vehicle: Klucel (hydroxypropylcellulose) (HPC) 103 % of control | dose: 25.0 mg/kg/injection, schedule: Q01DX001 (ip), vehicle: Klucel (hydroxypropylcellulose) (HPC) 108 % of control | dose: 50.0 mg/kg/injection, schedule: Q01DX001 (ip), vehicle: Klucel (hydroxypropylcellulose) (HPC) 111 % of control
